Laboratory results published in PubChem BioAssay (NCI).
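Method: 48-hour compound exposure of cells in 96-well plates, five concentrations, linear interpolation of endpoints. At the TGI there is no net growth.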

What follows are compounds tested on EKVX NSCLC (assay: DTP human tumour cell line panel, 48 h).

| SMILES | TGI |
| --- | --- |
| [N-]=[N+]=NCc1nc(N)c2c3c(sc2n1)CCCC3 | 4.95 µM |
| CCOC(=O)C(CCN1CCC2(CC1)C(=O)N(C)CN2c1ccccc1)C(=O)OCC | > 100 µM |
| Cc1cc(/N=C/c2ccc(F)cc2)n(-c2ccccc2)n1 | > 100 µM |
| CCOC(=O)/C=C(/C(=O)OCC)n1cnc2c(=O)[nH]c(NC(C)=O)nc21 | > 100 µM |
| O=C1NC(N/N=C\C(O)C(O)C(O)C(O)CO)=N/C1=C/c1ccc(Cl)cc1 (stereo not given) | > 100 µM |
| CC(Oc1ccc(Cl)cc1Cl)C(=O)NN1C(=O)CSC1c1ccccc1 (stereo not given) | > 100 µM |
| CCOC(=O)/C=C(\C(=O)OCC)n1ccc(=O)n(Cc2cn(CCCCOC(C)=O)nn2)c1=O | 31.4 µM |
| O=C1c2ccccc2C(=O)c2c1nc1ccccc1c2-c1cncc(-c2c3c(nc4ccccc24)C(=O)c2ccccc2C3=O)c1 | > 100 µM |
| COC(C)(C)OCCN1CCN(CCN2C3=C(C=C(C(C)=O)C3)Sc3ccccc32)CC1 | > 100 µM |

These compounds were tested on LOX IMVI melanoma (assay: DTP human tumour cell line panel, 48 h).

| SMILES | TGI |
| --- | --- |
| [N-]=[N+]=NCc1nc(N)c2c3c(sc2n1)CCCC3 | 2.13 µM |
| CCOC(=O)C(CCN1CCC2(CC1)C(=O)N(C)CN2c1ccccc1)C(=O)OCC | > 100 µM |
| Cc1cc(/N=C/c2ccc(F)cc2)n(-c2ccccc2)n1 | > 100 µM |
| CCOC(=O)/C=C(/C(=O)OCC)n1cnc2c(=O)[nH]c(NC(C)=O)nc21 | > 100 µM |
| O=C1NC(N/N=C\C(O)C(O)C(O)C(O)CO)=N/C1=C/c1ccc(Cl)cc1 (stereo not given) | > 100 µM |
| CC(Oc1ccc(Cl)cc1Cl)C(=O)NN1C(=O)CSC1c1ccccc1 (stereo not given) | > 100 µM |
| CCOC(=O)/C=C(\C(=O)OCC)n1ccc(=O)n(Cc2cn(CCCCOC(C)=O)nn2)c1=O | 48.1 µM |
| O=C1c2ccccc2C(=O)c2c1nc1ccccc1c2-c1cncc(-c2c3c(nc4ccccc24)C(=O)c2ccccc2C3=O)c1 | 13.8 µM |
| COC(C)(C)OCCN1CCN(CCN2C3=C(C=C(C(C)=O)C3)Sc3ccccc32)CC1 | 42.2 µM |

Each compound was assayed on 786-0 renal (assay: DTP human tumour cell line panel, 48 h).

| SMILES | TGI |
| --- | --- |
| [N-]=[N+]=NCc1nc(N)c2c3c(sc2n1)CCCC3 | 1.55 µM |
| CCOC(=O)C(CCN1CCC2(CC1)C(=O)N(C)CN2c1ccccc1)C(=O)OCC | > 100 µM |
| Cc1cc(/N=C/c2ccc(F)cc2)n(-c2ccccc2)n1 | > 100 µM |
| CCOC(=O)/C=C(/C(=O)OCC)n1cnc2c(=O)[nH]c(NC(C)=O)nc21 | > 100 µM |
| O=C1NC(N/N=C\C(O)C(O)C(O)C(O)CO)=N/C1=C/c1ccc(Cl)cc1 (stereo not given) | > 100 µM |
| CC(Oc1ccc(Cl)cc1Cl)C(=O)NN1C(=O)CSC1c1ccccc1 (stereo not given) | > 100 µM |
| CCOC(=O)/C=C(\C(=O)OCC)n1ccc(=O)n(Cc2cn(CCCCOC(C)=O)nn2)c1=O | > 51.1 µM |
| O=C1c2ccccc2C(=O)c2c1nc1ccccc1c2-c1cncc(-c2c3c(nc4ccccc24)C(=O)c2ccccc2C3=O)c1 | 67.4 µM |
| COC(C)(C)OCCN1CCN(CCN2C3=C(C=C(C(C)=O)C3)Sc3ccccc32)CC1 | 36 µM |

Each compound was assayed on NCI-H226 lung (assay: DTP human tumour cell line panel, 48 h).

| SMILES | TGI |
| --- | --- |
| [N-]=[N+]=NCc1nc(N)c2c3c(sc2n1)CCCC3 | 5.97 µM |
| CCOC(=O)C(CCN1CCC2(CC1)C(=O)N(C)CN2c1ccccc1)C(=O)OCC | > 100 µM |
| Cc1cc(/N=C/c2ccc(F)cc2)n(-c2ccccc2)n1 | > 100 µM |
| CCOC(=O)/C=C(/C(=O)OCC)n1cnc2c(=O)[nH]c(NC(C)=O)nc21 | > 100 µM |
| O=C1NC(N/N=C\C(O)C(O)C(O)C(O)CO)=N/C1=C/c1ccc(Cl)cc1 (stereo not given) | > 100 µM |
| CC(Oc1ccc(Cl)cc1Cl)C(=O)NN1C(=O)CSC1c1ccccc1 (stereo not given) | 64.1 µM |
| CCOC(=O)/C=C(\C(=O)OCC)n1ccc(=O)n(Cc2cn(CCCCOC(C)=O)nn2)c1=O | 32.7 µM |
| O=C1c2ccccc2C(=O)c2c1nc1ccccc1c2-c1cncc(-c2c3c(nc4ccccc24)C(=O)c2ccccc2C3=O)c1 | 43.6 µM |
| COC(C)(C)OCCN1CCN(CCN2C3=C(C=C(C(C)=O)C3)Sc3ccccc32)CC1 | 65.6 µM |

Each compound was assayed on SF-539 CNS (assay: DTP human tumour cell line panel, 48 h).

| SMILES | TGI |
| --- | --- |
| [N-]=[N+]=NCc1nc(N)c2c3c(sc2n1)CCCC3 | 3.46 µM |
| CCOC(=O)C(CCN1CCC2(CC1)C(=O)N(C)CN2c1ccccc1)C(=O)OCC | > 100 µM |
| Cc1cc(/N=C/c2ccc(F)cc2)n(-c2ccccc2)n1 | > 100 µM |
| CCOC(=O)/C=C(/C(=O)OCC)n1cnc2c(=O)[nH]c(NC(C)=O)nc21 | > 100 µM |
| O=C1NC(N/N=C\C(O)C(O)C(O)C(O)CO)=N/C1=C/c1ccc(Cl)cc1 (stereo not given) | > 100 µM |
| CC(Oc1ccc(Cl)cc1Cl)C(=O)NN1C(=O)CSC1c1ccccc1 (stereo not given) | > 100 µM |
| CCOC(=O)/C=C(\C(=O)OCC)n1ccc(=O)n(Cc2cn(CCCCOC(C)=O)nn2)c1=O | 5.65 µM |
| O=C1c2ccccc2C(=O)c2c1nc1ccccc1c2-c1cncc(-c2c3c(nc4ccccc24)C(=O)c2ccccc2C3=O)c1 | 60.5 µM |
| COC(C)(C)OCCN1CCN(CCN2C3=C(C=C(C(C)=O)C3)Sc3ccccc32)CC1 | 39.8 µM |
